Experimental data taken from patent US9217014B2, “Antifungal agents and uses thereof” (Cidara Therapeutics, Inc., priority 2011, dated 2015).
Read-outs that look alike come from different tables or passages of the source. Values belong to the molecule of their own block, whether it stands above or below them. *1 amine or outer side, *2 acyl side, *3 side chain or, on linkers, in order; H or OH if unused. Where a SMILES comes first, the peptide text is derived from it. Bridges are numbered along the chain shown (N, C = ends). [ ]: non-standard residue; d: D form. The star is where a group is joined. pTerphenylCO(4''-OnC5H11) = CCCCCOc1ccc(-c2ccc(-c3ccc(C(=O)*)cc3)cc2)cc1; Orn(4R-OH,5R-OH) = O=C([C@H](C[C@@H](O)[C@@H](O)N[*:3])N[*:1])[*:2]; hTyr(3S-OH,4S-OH) = N[C@H](C(=O)O)[C@H](O)[C@@H](O)c1ccc(O)cc1; Pro(3S-OH,4S-Me) = C[C@H]1CN[C@H](C(=O)O)[C@H]1O; Hyp = O=C(O)[C@@H]1C[C@@H](O)CN1

What was measured:
[1] = Solubility in aqueous buffers of varying pH; format: physicochemical; details: ambient temperature, compound 1 as acetate salt
Description: The solubility of compound 1 (acetate salt) was measured in aqueous buffers of varying pH to assess this compound's suitability for formulation in an aqueous carrier for administration by injection (e.g., intravenous or intramuscular injection).

[2] = Pharmacokinetics in beagle dogs, intravenous; format: in vivo; details: for half-life / Vd: dog
Description: The test articles were administered to beagle dogs weighing approximately 6-10 kg. Each test article was dosed at 1.4 mg/kg in aqueous saline (with or without 0.5% Tween) over course of 1-10 minutes. […] The dogs were fasted at least 12 hours prior to each dosing and offered food after the 4-hour blood sample was taken; water was withheld for 1 hour prior to and 4 hours following each dosing event. The dose for each animal was based on its most recent body weight. The test article was injected intravenously via a catheter placed in the cephalic vein as a slow bolus.
Blood was collected via the jugular vein. All blood samples (˜1 mL each) were collected into K3EDTA tubes. Following blood collection, the samples were immediately inverted several times and were held on wet ice pending centrifugation. The samples were centrifuged within ˜30 minutes of collection under refrigeration (˜5° C. for ˜10 minutes at ˜2000 g) to obtain plasma. The plasma was frozen immediately on dry ice after separation. The plasma samples were stored at approximately −70° C. until analysis.
Plasma (100 μL) was precipitated with 400 μL of 0.1% formic acid in acetonitrile containing the internal standard (100 ng/mL pneumocandin). The samples were then capped and vortexed for about 30 seconds followed by centrifugation at 14,000 rpm at room temperature for 10 minutes. Following centrifugation 200 μL of supernatant was transferred to plastic autosampler vials containing 200 μL of 0.1% formic acid in water and vortexed. Samples were then analyzed by LCMSMS.
All pharmacokinetic calculations were performed using WinNonlin version 4.1 (Pharsight Corp) by noncompartmental analysis.

[3] = Solubility in non-aqueous solvents; format: physicochemical; details: organic solvent or mixture, compound 1 as acetate salt
Description: The solubility of compound 1 (acetate salt) was also measured in non-aqueous solvents to assess this compound's suitability for formulation in non-aqueous carriers.

C. albicans R303 = experiment: mouse candidiasis infection model, IP administration, kidney fungal burden; format: in vivo; details: for log reduction at 1 mg/kg / log reduction at 0.5 mg/kg / log reduction at 1.5 mg/kg / log reduction at 4.5 mg/kg: Candida albicans, R303, ip, 24 h; for overall performance in reducing C. albicans CFUs in the kidneys of the mice: conclusion over all runs
Description: The objective of these studies was to evaluate the efficacy of test compounds in the mouse candidiasis infection model. Amounts of test articles are uncorrected.
The strain, C. albicans R303 was transferred from frozen storage onto Sabauroud dextrose agar (SDA) plates and grown for ˜24 hr at 35° C. The inoculum was prepared by transferring colonies from the plate to phosphate buffered saline (PBS) and the concentration adjusted to approximately 10^6 CFU/mL with the aid of a spectrophotometer. The stock was diluted 1:9 to prepare the inoculum. Prior to each run the concentration was verified using the dilution plate count method.
Female CD-1 mice were used in this study. The animals were approximately seven-weeks-old at the start of the study and weighed about 15-30 g.
Mice were made neutropenic with IP injections of cyclophosphamide (150 mg/kg in 10 mL/kg) at 4 and 1 day before inoculation. Each animal was inoculated with the appropriate concentration by injecting 0.1 mL of inoculum into a tail vein. The test compounds were administered IP at 2 hr after infection.
In a typical procedure, the kidneys were collected from four mice in control group 1 (untreated) at 2 hr after infection, and from another four mice in control group 2 (untreated) at 24 hr after infection. Kidneys were removed aseptically from each mouse and were combined in a sterile tube. An aliquot (2 mL) of sterile PBS was added to each tube and the contents homogenized with a tissue homogenizer (Polytron 3100). Serial dilutions of the tissue homogenates were conducted and 0.1 mL aliquots were spread on SDA plates and the plates incubated at 35° C. overnight. The CFU/kidneys were determined from colony counts. Data were analyzed using one-way ANOVA with either the Tukey-Kramer Multiple Comparisons Test or Dunnett Test (GraphPad InStat version 3.06, GraphPad Software, San Diego, Calif.).
The data reported below are the average of four mice. Each run included a separate control and each is tabulated separately.

[4] = 1.4 mg/kg intravenous slow bolus, mean ± SEM, n = 4 beagle dogs
[5] = Fourth run, IP 0.5 mg/kg, kidneys 24 h after infection
[6] = Fourth run, IP 1.5 mg/kg, kidneys 24 h after infection
[7] = Second run, IP 0.5 mg/kg, kidneys 24 h after infection
[8] = Second run, IP 1.5 mg/kg, kidneys 24 h after infection
[9] = Second run, IP 4.5 mg/kg, kidneys 24 h after infection

SMILES: CCCCCOc1ccc(-c2ccc(-c3ccc(C(=O)N[C@H]4C[C@@H](O)[C@@H](O)NC(=O)[C@@H]5[C@@H](O)[C@@H](C)CN5C(=O)[C@H]([C@@H](C)O)NC(=O)[C@H]([C@H](O)[C@@H](O)c5ccc(O)cc5)NC(=O)[C@@H]5C[C@@H](O)CN5C(=O)[C@H]([C@@H](C)O)NC4=O)cc3)cc2)cc1 [anidulafungin, reference compound] ({pTerphenylCO(4''-OnC5H11)}-[Orn(4R-OH,5R-OH)]T[Hyp][hTyr(3S-OH,4S-OH)]T[Pro(3S-OH,4S-Me)]; lactam 1-C)
solubility ([1]; aqueous buffer, pH 3 (0.01M formate buffer)): < 10 µg/mL
solubility ([1]; aqueous buffer, pH 4.6 (0.1M acetate buffer)): < 10 µg/mL
solubility ([1]; aqueous buffer, pH 5.6 (0.1M acetate buffer)): < 10 µg/mL
solubility ([1]; aqueous buffer, pH 7.4 (0.1M phosphate buffer)): < 10 µg/mL
solubility ([1]; aqueous buffer, pH 8.5 (0.01M TRIS buffer)): < 10 µg/mL
solubility ([1]; saline or isotonic, 0.9% saline): < 10 µg/mL
solubility ([1]; simulated gastric fluid, pH 1 (0.1M HCl)): < 10 µg/mL
CI [2, 4]: 0.785 ± 0.032 mL/min/kg
Vz [2, 4]: 0.779 ± 0.0304 L/kg
half-life ([2]; beagle, in vivo, iv, 1.4 mg/kg, 1.4 mg/kg intravenous slow bolus, mean ± SEM, n = 4 beagle dogs, read-out: T ½ (converted)): ~12 h
solubility ([3]; Ethanol (EtOH)): > 17600 µg/mL
solubility ([3]; Glycerol): 1500 µg/mL
solubility ([3]; PEG400): > 26800 µg/mL
solubility ([3]; Propylene glycol(PG)): > 17200 µg/mL
log reduction at 1 mg/kg (C. albicans R303; read-out: Difference from 24-h control, Fifth run, IP 1 mg/kg): 2.07
log reduction at 1 mg/kg (C. albicans R303; read-out: Difference from 24-h control, First run, IP 1 mg/kg): 1.83
log reduction at 0.5 mg/kg (C. albicans R303; read-out: Difference from 24-h control, Fourth run, IP 0.5 mg/kg): 1.29
log reduction at 1.5 mg/kg (C. albicans R303; read-out: Difference from 24-h control, Fourth run, IP 1.5 mg/kg): 4.03
log reduction at 0.5 mg/kg (C. albicans R303; read-out: Difference from 24-h control, Second run, IP 0.5 mg/kg): 0.47
log reduction at 1.5 mg/kg (C. albicans R303; read-out: Difference from 24-h control, Second run, IP 1.5 mg/kg): 2.11
log reduction at 4.5 mg/kg (C. albicans R303; read-out: Difference from 24-h control, Second run, IP 4.5 mg/kg): 3.78
Mean log10 CFU/kidneys (±SEM) (C. albicans R303; Fifth run, IP 1 mg/kg, kidneys 24 h after infection): 3.06 ± 0.18 log10 CFU/kidneys
Mean log10 CFU/kidneys (±SD) (C. albicans R303; First run, IP 1 mg/kg, neutropenic mice, kidneys 24 h after infection): 3.37 ± 0.72 log10 CFU/kidneys
Mean log10 CFU/kidneys (±SEM) (C. albicans R303; [5]): 3.81 ± 0.19 log10 CFU/kidneys
Mean log10 CFU/kidneys (±SEM) (C. albicans R303; [6]): 1.08 ± 0.08 log10 CFU/kidneys
Mean log10 CFU/kidneys (±SEM) (C. albicans R303; [7]): 4.41 ± 0.12 log10 CFU/kidneys
Mean log10 CFU/kidneys (±SEM) (C. albicans R303; [8]): 2.77 ± 0.20 log10 CFU/kidneys
Mean log10 CFU/kidneys (±SEM) (C. albicans R303; [9]): 1.10 ± 0.38 log10 CFU/kidneys

Vd ([2]; beagle, in vivo, iv, 1.4 mg/kg): 0.627 ± 0.0139 L/kg
half-life ([2]; beagle, in vivo, iv, 1.4 mg/kg): 33.7 ± 3.28 h
SMILES: CCCCCOc1ccc(-c2ccc(-c3ccc(C(=O)N[C@H]4C[C@@H](O)C(OCCOCCN)NC(=O)C5[C@@H](O)[C@@H](C)CN5C(=O)C([C@@H](C)O)NC(=O)C([C@H](O)[C@@H](O)c5ccc(O)cc5)NC(=O)C5C[C@@H](O)CN5C(=O)C([C@@H](C)O)NC4=O)cc3)cc2)cc1 (stereo partly shown) [compound 5]
log reduction at 0.5 mg/kg (C. albicans R303; Second run, IP 0.5 mg/kg, read-out: Difference from 24-h control): 1.22
log reduction at 1.5 mg/kg (C. albicans R303; Second run, IP 1.5 mg/kg, read-out: Difference from 24-h control): 4.15
log reduction at 4.5 mg/kg (C. albicans R303; Second run, IP 4.5 mg/kg, read-out: Difference from 24-h control): 4.87
Mean log10 CFU/kidneys (±SEM) (C. albicans R303; [7]): 3.65 ± 0.10 log10 CFU/kidneys
Mean log10 CFU/kidneys (±SEM) (C. albicans R303; [8]): 0.73 ± 0.42 log10 CFU/kidneys
Mean log10 CFU/kidneys (±SEM) (C. albicans R303; [9]): 0.00 ± 0.00 log10 CFU/kidneys
overall performance in reducing C. albicans CFUs in the kidneys of the mice (C. albicans R303): performed strongly

CI [2, 4]: 0.377 ± 0.018 mL/min/kg
half-life ([2]; plasma, 1.4 mg/kg intravenous slow bolus, mean ± SEM, n = 4 beagle dogs, read-out: T ½ (converted)): 21 ± 1.16 h
Vd ([2]; plasma, 1.4 mg/kg intravenous slow bolus, mean ± SEM, n = 4 beagle dogs, read-out: Vz): 0.687 ± 0.0584 L/kg
SMILES: CCCCCOc1ccc(-c2ccc(-c3ccc(C(=O)N[C@H]4C[C@@H](O)C(NCCNCCO)NC(=O)C5[C@@H](O)[C@@H](C)CN5C(=O)C([C@@H](C)O)NC(=O)C([C@H](O)[C@@H](O)c5ccc(O)cc5)NC(=O)C5C[C@@H](O)CC5C(=O)C([C@@H](C)O)NC4=O)cc3)cc2)cc1 (stereo partly shown) [compound 18]
log reduction at 0.5 mg/kg (C. albicans R303; Fourth run, IP 0.5 mg/kg, read-out: Difference from 24-h control): 2.56
log reduction at 1.5 mg/kg (C. albicans R303; Fourth run, IP 1.5 mg/kg, read-out: Difference from 24-h control): 3.95
Mean log10 CFU/kidneys (±SEM) (C. albicans R303; [5]): 2.54 ± 0.17 log10 CFU/kidneys
Mean log10 CFU/kidneys (±SEM) (C. albicans R303; [6]): 1.15 ± 0.09 log10 CFU/kidneys
overall performance in reducing C. albicans CFUs in the kidneys of the mice (C. albicans R303): performed strongly

SMILES: CCC(C)CC(C)CCCCCCCCC(=O)N[C@H]1C[C@@H](O)C(NCCNCCN)NC(=O)C2[C@@H](O)CCN2C(=O)C([C@H](O)CCN)NC(=O)C([C@H](O)[C@@H](O)c2ccc(O)cc2)NC(=O)C2C[C@@H](O)CC2C(=O)C([C@@H](C)O)NC1=O (stereo partly shown) [compound 22]
log reduction at 0.5 mg/kg (C. albicans R303; Third run, IP 0.5 mg/kg, read-out: Difference from 24-h control): 3.56
log reduction at 1.5 mg/kg (C. albicans R303; Third run, IP 1.5 mg/kg, read-out: Difference from 24-h control): 5.2
log reduction at 4.5 mg/kg (C. albicans R303; Third run, IP 4.5 mg/kg, read-out: Difference from 24-h control): 4.55
Mean log10 CFU/kidneys (±SEM) (C. albicans R303; Third run, IP 0.5 mg/kg, kidneys 24 h after infection): 1.65 ± 0.16 log10 CFU/kidneys
Mean log10 CFU/kidneys (±SEM) (C. albicans R303; Third run, IP 1.5 mg/kg, kidneys 24 h after infection): 0.00 ± 0.00 log10 CFU/kidneys
Mean log10 CFU/kidneys (±SEM) (C. albicans R303; Third run, IP 4.5 mg/kg, kidneys 24 h after infection): 0.65 ± 0.38 log10 CFU/kidneys
overall performance in reducing C. albicans CFUs in the kidneys of the mice (C. albicans R303): performed strongly
